Consider one compound from article PMC10384675, “Novel Thiazolidine-2,4-dione-trimethoxybenzene-thiazole Hybrids as Human Topoisomerases Inhibitors” (Pharmaceuticals, 2023).

Structures are written as SMILES.

Assay [1] has as its system caspases 3/7. The experiment in a line: Caspase-Glo assay, caspase-3/7. Particulars: MCF-7 cells, at IC50 value, 24 h, vs vehicle. The format is cell-based, human. On the procedure:
(§1) Once established that mitochondria were damaged and cyt c released into the cytoplasm, we evaluated the ability of compound 7e treatment (used at its IC50 value) in modulating caspase activity.
(§2) The caspase-Glo Assay (Caspase-Glo® 3/7, 8 and 9 Assay Systems, Promega Corporation, Madison, WI) was used to detect caspase-3/7, -8 and -9 activities, as reported in [82]. Briefly, cells were grown in white-walled 96-well plates, treated with the compound, and 100 µL of each […] was added.
(§3) Figure 7 Caspase activity in MCF-7 cells. […] Columns mean, bars SD; * p < 0.001; n.s., not significant (treated vs. CTRL).

Assay [2] deals with caspase-9. The experiment in a line: Caspase-Glo assay, caspase-9. Particulars: MCF-7 cells, at IC50 value, 24 h, vs vehicle. Type of assay: cell-based, human. How it is done: as §1, §2, §3
Assay [3] has as its system A2058 melanoma cells. The experiment in a line: MTT cell viability assay, A2058. Particulars: Homo sapiens, 72 h. Type of assay: cell-based. How it is done: (§4) All of the synthesized compounds (7a–f) were studied to test their anticancer activity toward the estrogen receptor-positive (ER+) MCF-7 and the triple-negative MDA-MB-231 breast cancer cells (ER-, PR- and HER-2/Neu not overexpressed) and A2058 melanoma cells. Cells were incubated for 72 h with different concentrations of the compounds, and then the viability was checked by the MTT assay. […] Moreover, we checked the cytotoxicity of all of the synthesized compounds against the human MCF-10A non-malignant breast epithelial cells and mouse BALB/3T3 embryonic fibroblasts, in order to evaluate their selectivity on cancer cells.
(§5) The used cell lines (breast cancer cell lines MCF-7 and MDA-MB-231, melanoma cell line A2058 and human mammary epithelial cell line MCF-10A) were obtained from American Type Culture Collection (ATCC, Manassas, VA, USA) and cultured as already reported. The mouse BALB/3T3 embryonic fibroblasts were also purchased from American Type Culture Collection (ATCC, Manassas, VA, USA) and cultured in DMEM high glucose supplemented with 10% bovine calf serum (BCS) and 100 U mL^−1 penicillin/streptomycin.
(§6) MTT assay (Sigma Aldrich (St. Louis, MO, USA)) was performed for evaluating the in vitro anticancer activities of the compounds, as previously indicated. Different concentrations (0.1, 1, 10, 25, 50, and 100 μM) of the compounds were employed, with a 72 h endpoint. IC50 values were obtained from the percent (%) of control using GraphPad Prism 9 (GraphPad Software, La Jolla, CA, USA).

In assay [4] the target is T1, hTopo I (Homo sapiens, UniProt P11387).
T1 construct: purchased TopoGEN, Port Orange, FL, USA
T1 sequence (P11387 1-765): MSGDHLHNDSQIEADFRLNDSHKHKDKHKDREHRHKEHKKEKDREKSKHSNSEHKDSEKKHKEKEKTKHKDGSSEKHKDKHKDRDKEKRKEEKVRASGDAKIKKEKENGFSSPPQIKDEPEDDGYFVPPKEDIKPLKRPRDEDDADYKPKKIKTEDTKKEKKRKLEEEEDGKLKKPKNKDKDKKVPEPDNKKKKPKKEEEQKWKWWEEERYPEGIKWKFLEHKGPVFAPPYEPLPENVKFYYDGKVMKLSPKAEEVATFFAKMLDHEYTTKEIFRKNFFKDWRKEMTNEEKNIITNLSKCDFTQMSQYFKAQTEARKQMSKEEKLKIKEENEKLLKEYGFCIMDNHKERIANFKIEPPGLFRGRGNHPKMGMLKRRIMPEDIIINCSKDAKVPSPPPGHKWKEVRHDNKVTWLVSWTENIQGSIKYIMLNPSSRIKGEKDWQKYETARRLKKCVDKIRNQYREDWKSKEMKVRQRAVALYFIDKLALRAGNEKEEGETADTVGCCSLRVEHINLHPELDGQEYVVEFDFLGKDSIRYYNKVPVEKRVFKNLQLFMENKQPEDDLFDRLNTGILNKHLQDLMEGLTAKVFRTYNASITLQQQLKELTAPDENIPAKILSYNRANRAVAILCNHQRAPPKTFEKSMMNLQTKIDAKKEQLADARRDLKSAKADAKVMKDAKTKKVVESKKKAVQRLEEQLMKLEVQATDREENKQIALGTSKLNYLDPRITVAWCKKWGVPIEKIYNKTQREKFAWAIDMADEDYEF
The experiment in a line: hTopo I relaxation assay. Type of assay: biochemical. Further details: key to Topoisomerase Inhibition hTopo I: (+) inhibition; (−) no inhibition; (+/−) partial inhibition. Particulars: 10 µM. The text has this:
Thiazoles and their derivatives are extensively recognized as chemical nuclei of great interest for producing molecules with multiple biological properties. In particular, several compounds bearing these heterocycles were studied for their capability to interfere with DNA topoisomerases (Topos), ubiquitous enzymes essential in several key cellular processes. In recent years, these enzymes have become popular targets in cancer therapy; indeed, the topoisomerase inhibitors can induce damage to genome integrity. Consequently, the inhibition of topoisomerases leads to cell death by apoptosis and, thus, is fatal. Thus, we carried out two specific tests in vitro for both of the Topos, namely the hTopo I relaxation and the hTopo II decatenation assays. For the hTopo I relaxation assay, we exposed the enzyme to the most interesting compounds, 7b–7e, at the final concentration of 10 µM for 1 h at 37 °C, using as substrate the supercoiled pHOT1 (see Section 4 Materials and Methods for more details). […] Contrarily, in the CTRL lane, where the hTopo I was exposed to only vehicle (DMSO), several bands due to pHOT1 DNA cleavage were present (Figure 3, lane C). […] In Figure 3, panel B, the hTopo I inhibition results using ellipticine, as reference molecule are shown. […] An electrophoretic mobility shift of the pHOT1 DNA was also noticeable, due to the intercalating properties of ellipticine.
hTopo I relaxation assays were performed by incubating the substrate (supercoiled pHOT1) with the recombinant hTopo I (TopoGEN, Port Orange, FL, USA) and compounds, as indicated in the supplier protocol (TopoGEN, Port Orange, FL, USA), with some revisions. hTopo II decatenation assays were conducted by incubating the kinetoplast DNA substrate (kDNA) with the hTopo II (TopoGEN, Port Orange, FL) and studied compounds, as indicated in the supplier procedures (TopoGEN, Port Orange, FL, USA), with some changes as in [80].
Figure 3 hTopo I relaxation assay. Plasmid pHOT1, used as substrate, was incubated with hTopo I with or without the studied compounds 7b–7e (10 µM concentration), panel (A), and with or without ellipticine (10 and 50 µM concentration), panel (B). Lane A, relaxed DNA marker; lane B, pHOT1 supercoiled DNA, lane C, CTRL (DMSO), lane D–G, compounds 7b–7e 10 µM, respectively. Lane 1, pHOT1 supercoiled DNA; lane 2, CTRL (DMSO), lanes 3–4, ellipticine 10 and 50 µM, respectively.

The test system of assay [5] is mouse BALB/3T3 embryonic fibroblasts. The experiment in a line: MTT cytotoxicity assay, BALB/3T3. The format is cell-based. Particulars: 72 h, normal cells. On the procedure: as §4, §5, §6
Background: Tetrazolium dyes change colour on reduction, which living cells bring about.

The IC50 is the concentration at which inhibition is half-maximal. As to `COc1cc(/C=C2\SC(=O)N(CC(=O)Nc3nc(-c4ccc(Br)cc4)cs3)C2=O)cc(OC)c1OC` [compound 7e, (Z)-2-(5-(3,4,5-Trimethoxybenzylidene)thiazolidin-2,4-dion-3-yl)-N-(4-(4-bromophenyl)thiazol-2-yl)acetamide], the “caspases 3/7 activity” value in assay [1] is recorded as “higher activity”. The caspase-9 activity entry in assay [2] was “noticeable increase”. The values for the IC50 in assay [3] and in assay [5] were 8.4 ± 0.9 µM and 35 ± 0.6 µM, respectively. Further, the “Topoisomerase Inhibition hTopo I” value in assay [4] is “−”. Moreover, in assay [4] (1 h, 37 °C, supercoiled pHOT1), the “hTopo I activity inhibition (in words)” value is reported as “able to inhibit hTopo I activity”.
